Among the data in the CheMixHub ionic liquid set are viscosity and electrical conductivity values, retold here.

As usually defined, the viscosity is the resistance of a fluid to flow. Read a high viscosity as a thick fluid.

The data set in a line: xn = mol fraction of the nth substance listed.
Where [1] appears, read: 296.1 K, 101.3 kPa, x2 = 0.4, x1 = 0.2.
Where [2] appears, read: 296.1 K, 101.3 kPa, x2 = 0.4286, x1 = 0.1429.

± gives the uncertainty stated by the source.

With `CCCCCC[n+]1ccn(C)c1.N#Cc1ccc[n-]1` + CCCCCCCCCCCCCC[P+](CCCCCC)(CCCCCC)CCCCCC.O=S(=O)([N-]S(=O)(=O)C(F)(F)F)C(F)(F)F, the viscosity is on record as 900 ± 120 mPa·s (283.15 K, 100 kPa, x2 = 0); 890 ± 120 mPa·s (283.15 K, 100 kPa, x2 = 0.1); 880 ± 120 mPa·s (283.15 K, 100 kPa, x2 = 0.2); 850 ± 110 mPa·s (283.15 K, 100 kPa, x2 = 0.501); 880 ± 120 mPa·s (283.15 K, 100 kPa, x2 = 0.601); 850 ± 110 mPa·s (283.15 K, 100 kPa, x2 = 0.7). Further, the viscosity (283.15 K, 100 kPa, x2 = 0.8) was determined as 870 ± 120 mPa·s and the viscosity (283.15 K, 100 kPa, x2 = 0.9) is on record as 810 ± 110 mPa·s.

On to `CC(C)O` + O + CCCCCCCCCCCCOS(=O)(=O)[O-].[Na+], for which the electrical conductivity reads like this: (298 K, 100 kPa, frequency 0.001 MHz, x1 = 0.01509, x3 = 0) 0.00013 S/m; (298 K, 100 kPa, frequency 0.001 MHz, x1 = 0.02546, x2 = 0.9745) 0.00014 S/m.

Turning to `[Cl-].[Cl-].[Co+2]` + CCCCCCCC[N+](CCCCCCCC)(CCCCCCCC)CCCCCCCC.[Br-] + CCCCC/C=C\C/C=C\CCCCCCCC(=O)O, the viscosity is, setting by setting: under setting [1], 9700 ± 3100 mPa·s; under setting [2], 2780 ± 520 mPa·s.

Turning to `CCCC[n+]1ccn(C)c1.O=S(=O)([O-])C(F)(F)F` + Nc1ccccc1, the viscosity was 132.7 ± 6.1 mPa·s (288.15 K, 100 kPa, x2 = 0); 57.6 ± 2.6 mPa·s (293.15 K, 100 kPa, x2 = 0.3002); 56.1 ± 2.5 mPa·s (298.15 K, 100 kPa, x2 = 0.1995); 37.3 ± 1.6 mPa·s (303.15 K, 100 kPa, x2 = 0.3002); 17.67 ± 0.78 mPa·s (318.15 K, 100 kPa, x2 = 0.3996); 18.28 ± 0.81 mPa·s (323.15 K, 100 kPa, x2 = 0.3002). The viscosity was found to be 3.12 ± 0.14 mPa·s (323.15 K, 100 kPa, x2 = 0.8999); 2.76 ± 0.12 mPa·s (328.15 K, 100 kPa, x2 = 0.8999); 16.23 ± 0.72 mPa·s (333.15 K, 100 kPa, x2 = 0.1995).

Consider `F[P-](F)(F)(F)(F)F.[Li+]` + CCCC[n+]1ccn(C)c1.N#C[N-]C#N, for which the electrical conductivity amounted to 0.307 ± 0.031 S/m (288.15 K, 101 kPa, x2 = 0.8953); 0.39 ± 0.039 S/m (288.15 K, 101 kPa, x2 = 0.9172); 0.482 ± 0.049 S/m (288.15 K, 101 kPa, x2 = 0.9531); 0.585 ± 0.059 S/m (288.15 K, 101 kPa, x2 = 0.9799); 0.488 ± 0.049 S/m (298.15 K, 101 kPa, x2 = 0.8823); 0.522 ± 0.053 S/m (298.15 K, 101 kPa, x2 = 0.8953). Further, the electrical conductivity (298.15 K, 101 kPa, x2 = 0.9172) worked out at 0.633 ± 0.064 S/m; the electrical conductivity (298.15 K, 101 kPa, x2 = 0.9531) stood at 0.771 ± 0.078 S/m; the electrical conductivity (298.15 K, 101 kPa, x2 = 0.9799) is 0.909 ± 0.091 S/m; the electrical conductivity (333.15 K, 101 kPa, x2 = 0.8823) came to 1.63 ± 0.16 S/m; the electrical conductivity (333.15 K, 101 kPa, x2 = 0.8953) turned out to be 1.68 ± 0.17 S/m; the electrical conductivity (333.15 K, 101 kPa, x2 = 0.9172) was found to be 1.97 ± 0.2 S/m. Moreover, the electrical conductivity was 2.24 ± 0.22 S/m (333.15 K, 101 kPa, x2 = 0.9531) and 2.58 ± 0.26 S/m (333.15 K, 101 kPa, x2 = 0.9799).

For `CCCCCCCCn1cc[n+](C)c1.[Br-]` + OC1OC[C@@H](O)[C@H](O)[C@H]1O + O, the viscosity was found to be 0.965 ± 0.014 mPa·s (298.15 K, 101 kPa, x2 = 0, x1 = 0.001831); 1.025 ± 0.015 mPa·s (298.15 K, 101 kPa, x2 = 0, x1 = 0.003598); 1.103 ± 0.015 mPa·s (298.15 K, 101 kPa, x2 = 0, x1 = 0.005443); 1.172 ± 0.015 mPa·s (298.15 K, 101 kPa, x2 = 0, x1 = 0.007132).

As for `CCCC[n+]1ccn(C)c1.COP(=O)([O-])OC` + CO, the viscosity reads like this: (293.15 K, 101 kPa, x2 = 0.8) 7.184 ± 0.084 mPa·s; (308.15 K, 101 kPa, x2 = 0.404) 68.7 ± 1 mPa·s; (313.15 K, 101 kPa, x2 = 0.8) 4.401 ± 0.052 mPa·s; (318.15 K, 101 kPa, x2 = 0.404) 44.37 ± 0.55 mPa·s.

In the case of `[Cl-].[Cl-].[Co+2]` + CCCCCCCC[N+](CCCCCCCC)(CCCCCCCC)CCCCCCCC.[Br-] + CCCCCCCCCC(=O)O, the viscosity under setting [1] was 55000 mPa·s.

As to `CCCCCCCCn1cc[n+](C)c1.O=[N+]([O-])[O-]` + CCCCCCCCn1cc[n+](C)c1.[Cl-], the viscosity (293 K, 101 kPa, x2 = 0.3615) was 8500 ± 2500 mPa·s.

In the case of `[Cl-].[Cl-].[Co+2]` + CCCCCCCC[N+](CCCCCCCC)(CCCCCCCC)CCCCCCCC.[Br-] + Cc1ccc(C(C)C)c(O)c1, the viscosity reads like this: under setting [1], 79000 mPa·s; under setting [2], 48000 mPa·s.

Take `CCCCCC[n+]1ccn(C)c1.O=S(=O)([O-])C(F)(F)F` + CC(C)O: the viscosity is 3.79 ± 0.38 mPa·s (293.15 K, 100 kPa, x2 = 0.9231); 99 ± 10 mPa·s (298.15 K, 100 kPa, x2 = 0.1282); 67.9 ± 6.8 mPa·s (298.15 K, 100 kPa, x2 = 0.2454); 31.4 ± 3.2 mPa·s (298.15 K, 100 kPa, x2 = 0.469); 41.2 ± 4.1 mPa·s (303.15 K, 100 kPa, x2 = 0.3506); 2.08 ± 0.21 mPa·s (313.15 K, 100 kPa, x2 = 0.9231).

For `CC(=O)C(=O)O` + CC[N+](CC)(CC)CC.[Cl-], the viscosity is, setting by setting: (298.15 K, 101.3 kPa, x2 = 0.3333) 89.1 ± 6.8 mPa·s; (308.15 K, 101.3 kPa, x2 = 0.3333) 57.5 ± 1.3 mPa·s; (318.15 K, 101.3 kPa, x2 = 0.3333) 37.5 ± 1.2 mPa·s; (328.15 K, 101.3 kPa, x2 = 0.3333) 24.05 ± 0.8 mPa·s; (338.15 K, 101.3 kPa, x2 = 0.3333) 16.05 ± 0.54 mPa·s.

As to `CCCC[n+]1ccn(C)c1.COP(=O)([O-])OC` + CCCC(=O)[O-].CC[NH+](CC)CCO, the viscosity is recorded as 609 ± 21 mPa·s (298.15 K, 101 kPa, x2 = 0); 168.9 ± 3.3 mPa·s (318.15 K, 101 kPa, x2 = 0); 100.9 ± 1.5 mPa·s (328.15 K, 101 kPa, x2 = 0); 43.18 ± 0.55 mPa·s (348.15 K, 101 kPa, x2 = 0); 19.25 ± 0.24 mPa·s (373.15 K, 101 kPa, x2 = 0).

Take `CCOP(=O)([O-])OCC.CC[n+]1ccn(C)c1` + CCCO + O: the viscosity is listed as 90 ± 12 mPa·s (293.15 K, 100 kPa, x2 = 0.347, x3 = 0.3491); 78 ± 10 mPa·s (303.15 K, 100 kPa, x2 = 0.294, x3 = 0.304); 93 ± 12 mPa·s (313.15 K, 100 kPa, x2 = 0.15, x3 = 0.1487); 76 ± 10 mPa·s (313.15 K, 100 kPa, x2 = 0.199, x3 = 0.1954); 80 ± 11 mPa·s (323.15 K, 100 kPa, x2 = 0.048, x3 = 0.0487).

As for `CCCCCCCCn1cc[n+](C)c1.F[B-](F)(F)F` + O, the viscosity runs as follows: (298.15 K, 100 kPa, x2 = 0.9487) 5.25 ± 0.26 mPa·s; (308 K, 100 kPa, x1 = 0.5482) 34.91 ± 0.76 mPa·s.
